Assay results reported in US12344615B2, “Substituted pyridines as ion channel modulators” (PRAXIS PRECISION MEDICINES, INC., priority 2019, dated 2025).

Target: T1, INaL v1.6 (late sodium current, HEK-293 cells expressing recombinant sodium channels) (Homo sapiens, UniProt Q9UQD0)
T1 construct: expressed in transfected cells; host or cells: HEK-293
Experiment: Inhibition of ATX-II evoked Nav late current (INaL), PatchXpress electrophysiology
Type: cell-based
Details: HEK293, compound at 1 μM, late current evoked by ATX-II 300 nM
Procedure: Functional characterization of exemplary compounds to modulate voltage gated sodium currents was accomplished using the PatchXpress™ high throughput electrophysiology platforms (Molecular Devices, Sunnyvale, CA). HEK-293 cells expressing recombinant sodium channels were grown in DMEM/high-glucose Dulbecco's modified, 10% FBS, 2 mM sodium pyruvate, and G418. Nav channel expressing cells were grown to 50%-80% confluency and harvested by trypsinization. Trypsinized cells were washed and resuspended in extracellular buffer at a concentration of 1×10^6 cells/ml. The onboard liquid handling facility of the PatchXpress was used for dispensing cells and application of test compounds. Nav late currents were evoked by the application of ATX-II, 300 nM. Currents were evoked by depolarizing pulses to 0 mV for 200 ms from a non-inactivating holding potential (e.g., −120 mV to −150 mV) at a frequency of 0.1 Hz. Late current amplitude and stability were determined by analyzing the mean current amplitude over the 175-195 msec region of the 200 msec test pulse. Following steady state block with exemplary compounds (e.g., as described herein) at 1 μM, a Na^+ free solution containing an impermeant cation (e.g., Choline or NDMG) was added for determination of the 0 current level. Late current amplitudes for each test condition were determined from the mean of the 175-195 msec region of the 200 msec test pulse. Percent inhibition of steady state currents was calculated as (compound−baseline)/(control−baseline)*100, where control represents INaL recorded in the absence of compound.

T1 sequence (Q9UQD0 whole entry): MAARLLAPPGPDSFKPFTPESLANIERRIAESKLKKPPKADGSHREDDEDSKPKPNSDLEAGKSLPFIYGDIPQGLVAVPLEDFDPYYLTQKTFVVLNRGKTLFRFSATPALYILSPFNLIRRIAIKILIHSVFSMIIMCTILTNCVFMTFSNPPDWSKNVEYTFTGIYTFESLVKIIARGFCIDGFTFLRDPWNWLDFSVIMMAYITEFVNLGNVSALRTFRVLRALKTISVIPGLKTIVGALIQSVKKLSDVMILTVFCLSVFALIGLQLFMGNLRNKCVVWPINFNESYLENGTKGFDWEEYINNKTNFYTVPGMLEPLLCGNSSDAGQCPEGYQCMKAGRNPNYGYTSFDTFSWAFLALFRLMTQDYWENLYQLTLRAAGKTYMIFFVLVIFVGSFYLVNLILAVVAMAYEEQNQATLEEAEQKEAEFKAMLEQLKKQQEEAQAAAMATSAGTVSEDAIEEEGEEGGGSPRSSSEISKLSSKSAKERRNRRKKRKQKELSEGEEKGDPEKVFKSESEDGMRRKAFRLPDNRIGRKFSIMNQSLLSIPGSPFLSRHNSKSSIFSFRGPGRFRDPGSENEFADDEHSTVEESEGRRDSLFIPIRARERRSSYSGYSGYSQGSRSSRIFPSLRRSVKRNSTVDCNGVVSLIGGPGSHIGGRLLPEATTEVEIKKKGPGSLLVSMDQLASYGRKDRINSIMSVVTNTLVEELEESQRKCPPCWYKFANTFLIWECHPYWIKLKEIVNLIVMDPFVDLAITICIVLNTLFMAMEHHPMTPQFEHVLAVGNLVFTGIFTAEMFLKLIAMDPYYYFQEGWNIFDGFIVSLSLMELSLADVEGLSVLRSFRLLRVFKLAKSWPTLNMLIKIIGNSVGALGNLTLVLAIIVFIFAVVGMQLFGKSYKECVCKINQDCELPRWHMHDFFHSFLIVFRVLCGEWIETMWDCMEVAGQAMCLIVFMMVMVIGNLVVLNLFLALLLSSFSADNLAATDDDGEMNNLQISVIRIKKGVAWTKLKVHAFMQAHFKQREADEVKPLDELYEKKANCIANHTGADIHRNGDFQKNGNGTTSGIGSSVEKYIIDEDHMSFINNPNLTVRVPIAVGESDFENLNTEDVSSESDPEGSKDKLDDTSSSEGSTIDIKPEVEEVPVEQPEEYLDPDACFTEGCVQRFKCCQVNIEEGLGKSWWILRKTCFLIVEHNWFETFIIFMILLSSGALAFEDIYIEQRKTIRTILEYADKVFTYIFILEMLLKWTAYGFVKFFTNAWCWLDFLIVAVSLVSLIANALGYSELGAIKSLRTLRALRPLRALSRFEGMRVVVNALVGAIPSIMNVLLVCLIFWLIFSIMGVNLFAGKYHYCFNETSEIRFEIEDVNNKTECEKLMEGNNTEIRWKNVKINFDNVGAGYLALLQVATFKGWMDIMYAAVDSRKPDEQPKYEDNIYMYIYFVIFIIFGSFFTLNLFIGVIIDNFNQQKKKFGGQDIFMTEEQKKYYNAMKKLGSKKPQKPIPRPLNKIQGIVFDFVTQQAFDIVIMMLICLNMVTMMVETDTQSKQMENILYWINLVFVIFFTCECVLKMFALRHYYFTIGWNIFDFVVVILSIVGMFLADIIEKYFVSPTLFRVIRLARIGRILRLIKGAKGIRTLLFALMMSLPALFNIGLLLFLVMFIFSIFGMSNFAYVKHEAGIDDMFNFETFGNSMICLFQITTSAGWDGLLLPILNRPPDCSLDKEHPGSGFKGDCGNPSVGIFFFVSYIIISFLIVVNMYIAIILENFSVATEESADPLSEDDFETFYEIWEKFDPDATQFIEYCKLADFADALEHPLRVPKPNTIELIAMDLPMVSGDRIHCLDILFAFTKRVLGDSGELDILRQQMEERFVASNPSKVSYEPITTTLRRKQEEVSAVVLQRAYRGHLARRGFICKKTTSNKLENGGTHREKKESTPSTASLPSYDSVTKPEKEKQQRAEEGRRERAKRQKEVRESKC

inhibition at 1 µM [%]	SMILES
50 to 75	Fc1cc(-c2cn3c(C(F)(F)F)nnc3cn2)cnc1OCC1CC1(F)F (centres unmarked) [Compound 29]
> 75	CC(C)(Oc1ncc(-c2cn3c(C(F)F)nnc3cn2)cc1F)C(F)(F)F [Compound 1, 3-(difluoromethyl)-6-[5-fluoro-6-(2,2,2-trifluoro-1,1-dimethyl-ethoxy)-3-pyridyl]-[1,2,4]triazolo[4,3-a]pyrazine]
